Assay results published in PMC11418391, “Benzenesulfonohydrazide-tethered non-fused and fused heterocycles as potential anti-mycobacterial agents targeting enoyl acyl carrier protein reductase (InhA) with antibiofilm activity” (RSC Advances, 2024).

Target: Enoyl acyl carrier protein (ACP) reductase (InhA) (Mycobacterium tuberculosis, UniProt P9WGR1)
Assay: colorimetric InhA assay, NADH oxidation at […] nm with 2-trans-octanoyl-CoA
Assay type: biochemical

Enoyl acyl carrier protein (ACP) reductase (InhA), sequence (P9WGR1 whole entry, looked up): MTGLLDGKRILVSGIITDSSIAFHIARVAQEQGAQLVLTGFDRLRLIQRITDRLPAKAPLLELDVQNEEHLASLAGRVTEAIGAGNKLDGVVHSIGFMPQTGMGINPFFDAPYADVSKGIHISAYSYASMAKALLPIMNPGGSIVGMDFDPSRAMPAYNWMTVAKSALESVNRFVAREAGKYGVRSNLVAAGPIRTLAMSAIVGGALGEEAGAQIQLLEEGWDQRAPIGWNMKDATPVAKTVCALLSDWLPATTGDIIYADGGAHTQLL

Structure (SMILES) | IC50 [µM]
C/C(=N\NS(=O)(=O)c1ccc(C)cc1)c1c(O)c2ccccc2oc1=O [compound 3] | 1.62 ± 0.69
CC(=NNS(=O)(=O)c1ccc(C)cc1)c1ccccn1 [compound 7] | 0.91 ± 0.03
